Laboratory results as given in patent US10548996B2, “Hydrogels for localized radiotherapy” (Washington University, priority 2014, dated 2020).

Experiments:
[1] = Release of radioactivity from implanted solid chitosan hydrogels to adjacent normal tissues (radiographic imaging); format: in vivo; details: FIG. 4; rats, non-encapsulated, loaded in solid chitosan hydrogel implant; Day-1 to Day-7
[2] = In vitro release of fluorescence from chitosan hydrogels to the surrounding media; format: physicochemical; details: FIG. 5, all time points tested, up to two weeks
Method: To determine the release of large molecules from the hydrogels, the following experiment was conducted. The chitosan hydrogels with the best injectability properties were analyzed naïve or loaded with the alginate microparticles with the best encapsulation efficiency. The in vitro release studies were developed by using a large-size molecule such as albumin and a small-size molecule as cresyl violet to detect the efficacy in both encapsulation settings. Albumin is not detectable by fluorescence reader or spectrophotometer, thus FITC was labeled to albumin. […] Different time points were measured to analyze short and long-term release. At 0, 1, 2, 4, 8, and 24 h, for short-term release, and 0, 0.33, 1, 2, 3, 7, 14, 21, 28, 42 days for long-term release, samples from the PBS solution that surrounded the chitosan hydrogels were analyzed by fluorescence reader (Alb-FITC and FITC) at 485/516 nm or spectrophotometer (CV) at 595 nm. The % release was calculated as follows: % Release=(Chitosan hydrogel−Blank)/(Control−Blank)*100
To assess these concepts, the release of fluorescence to the surrounding media was tested from chitosan hydrogels containing free-fluorescein, fluorescien-conjugated to bovine serum albumin (FITC-Alb), and FITC-Alb encapsulated in calcium-alginate microparticles.

Compound | radioactive leakage from the implant to adjacent normal tissues [1] | relative release of fluorescence to the surrounding media [2]
CC(C)CCCC(C)C1CCC2C3CC(C[131I])C4=C(CCC(O)C4)C3CCC12C (centres unmarked) [^131I-nor-cholesterol] | radioactive leakage from the implant starting at Day-1 that becomes more evident at Day-7 | –
FITC-Alb: fluorescien-conjugated to bovine serum albumin, in chitosan hydrogel | – | less than half of the relative release of fluorescein
